Test results reported in patent US20030170299A1, “Therapeutic methods for acute myeloid leukemia” (priority 2002, published 2003).
Read-outs that look alike come from different tables or passages of the source.

Key:
KG-1 cells [1] = assay: Cellular uptake of calcein liposomes by flow cytometry, KG-1; assay type: cell-based, human; conditions: 6S-5MeTHF at 10 μM
Method: Folate-coated liposomes with the composition DSPC/Chol/folate-PEG-DSPE (60:40:0.1, m/m) and entrapping calcein, a membrane impermeable fluorescent dye, (f-L-calcein) were prepared, using a modification of the procedure described above. Non-targeted calcein-containing liposomes (L-calcein), with essentially the same composition, minus folate-PEG-DSPE, were used as a control. FR (+) cell lines, human KG-1, CHO-FR-β, and murine L1210JF, and the FR (−) cell lines KG-1a, CHO-K1 and L1210 were used. FR-β expression on the cells was determined by flow cytometry using a receptor-specific antibody. For liposome binding studies, the cells were treated in triplicate with f-L-calcein (folate-conjugated liposomes containing calcein) or free L-calcein at 20 μM in media. The cells were then washed 3× with cold PBS and examined by […] (FIG. 3).
Data on cellular uptake of calcein-containing liposomes in the FR (+) KG-1, L1210JF and CHO-FR-β cells, and FR (−) KG-1a, L1210 and CHO-K1 controls are summarized in Table 2 below.
In order to examine the potential effect of physiological folate on FR-mediated drug delivery in FR-β (+) cells, f-L-calcein uptake was measured in KG-1 cells in the presence of 0-10 μM 6S-5-methyltetrahydrofolate (6S-5MeTHF) using the same flow cytometry method as described above.

FR-β = conditions: cited from earlier work
CMLs = conditions: in vivo; cited from earlier work
[2] = test system: acute promyelocytic leukemia (PML); conditions: PML patients; cited from earlier work
FR-β expression [3] = assay: ATRA induction of FR-β in AML blasts from patient marrow (Western blot); assay type: cell-based, human; conditions: myeloid leukemia cells from patient bone marrow, in vitro, ATRA 1 μmol/L
Method: FIG. 5. ATRA induction of FR-β in AML blasts from patient marrow. Cells (1×10^6) were cultured and treated with or without ATRA (1 μmol/L) for 6 hours (A and B), 24 hours (C), or 5 days (D). The samples were obtained from separate patients with FAB-M2 (A and C) or FAB-M4 (B and D) type AML. Cell lysates were then examined by Western blot and the use of rabbit anti-FR-β- and AP conjugated antibodies.
In one study, FR-β expression was elevated up to 20-fold by ATRA in KG-1 myeloid leukemia cells in a dose-dependent and reversible manner in the absence of terminal differentiation or cell growth inhibition (FIG. 4). The retinoid-induced increase in FR-β expression occurred in these cells without causing terminal differentiation or growth inhibition of the cells. In addition, ATRA increased FR-β expression in vitro in myeloid leukemia cells from patient bone marrow (FIG. 5). ATRA-induction of FR-β occurred even though primary AML blast cells (M2 and M4 type AMLs) are known to be refractory to ATRA differentiation therapy. […] In addition, FR-β inducers can modulate FR-β expression in AML cells refractory to retinoid differentiation therapy.

FR-β expression [4] = test system: FR-β expression
KG-1 cells [5] = assay: MTT cytotoxicity, KG-1; assay type: cell-based, human
Method: (§1) FR-targeted liposomal doxorubicin (f-L-DOX) was evaluated for in vitro cytotoxicity in both FR (+) and FR (−) leukemia cells using a standard cell survival assay (MTT assay). FR-targeted liposomal-doxorubicin (f-L-DOX) was prepared as described above. F-L-DOX in vitro cytotoxicity was evaluated in two FR (+) cell lines [KG-1, an FR-β (+) human AML cell line, and L1210JF, an FR (+) subline of L1210 murine acute lymphocytic leukemia cell line] and two FR (−) cell lines [KG-1a, an FR-β (−) subline of KG-1, and FR (−) L1210 cells] using the survival assay. The cells were treated in quadruplicate with serial dilutions of f-L-DOX, non-targeted control L-DOX, or free DOX. Cell viability was determined and IC50 values were calculated. For KG-1 and KG-1a cells, the MTT assay was repeated with cells cultured in media containing 1 μM ATRA for 5-days.

KG-1a cells = assay: MTT cytotoxicity, KG-1a; assay type: cell-based, human
Method: as §1

L1210 cells = assay: MTT cytotoxicity, L1210; assay type: cell-based, murine
Method: as §1

L1210JF ascites tumor = assay: Survival of DBA/2 mice carrying L1210JF ascites tumor; assay type: in vivo, DBA/2J mice; conditions: i.p. on days 1, 5, 9; free DOX 3 mg/kg, L-DOX and f-L-DOX 5 mg/kg DOX
Method: The antileukemic therapeutic efficacy of f-L-DOX was evaluated in two FR (+) murine leukemia ascites tumor models. The first model consisted of DBA/2J mice with ascites tumors derived from intraperitoneally engrafted FR (+) murine lymphocytic leukemia L1210JF cells. Male mice (18-22 g, from Charles River, Wilmington, Mass.) were placed on a folate-deficient diet (AIN-93G from Dyets, Inc., PA) and for at least one week prior to leukemia cell inoculation. The mice, in groups of 8 animals, were injected intraperitoneally with 1×10^6 L1210JF cells on day 0. The animals then received three intraperitoneal injections (in 50 μL) of various drug formulations on days 1, 5, and 9. […] In the saline-treated group, no visible ascitic fluid began to develop until after one week.

L1210JF cells = assay: MTT cytotoxicity, L1210JF; assay type: cell-based, murine; conditions: no ATRA
Method: as §1

FR-β (+) AML cells = assay: [3H] folic acid binding to FR-β (+) AML cells; set-up: species or system human

Method for KG-1 ascites tumor: Effect of f-L-DOX treatment on the survival of SCID mice carrying KG-1 ascites tumor. SCID mice inoculated intraperitoneally with KG-1 cells that were treated with saline, free DOX, L-DOX or f-L-DOX, with or without co-injection of ATRA. Animal survival was recorded starting from the day of tumor cell inoculation.
The therapeutic efficacy of f-L-DOX in a human leukemia murine ascites xenograft model was further tested. Female CB.17 SCID (scid/scid, 18-22 g) mice were inoculated intraperitoneally with human AML KG-1 cells, which express FR-β, to generate ascites tumors. KG-1 cells (1×10^6) grown in folate-deficient RPMI1640 media supplemented with 20% FBS were injected into the mice intraperitoneally on day 0. […] Peritoneal exudate cells were collected by peritoneal lavage with 5 mL Hanks' balanced salt solution (HBSS), pelleted and resuspended in RPMI1640 media. […] The tumor cells were inoculated into 8 groups of 8 mice. Four of the groups received daily intraperitoneal injections of 10 mg/kg of ATRA on days 1 through 5. The following formulations were administered as intraperitoneal injections on days 1, 5, and 9 (in 50 μL): 1) saline, 2) free DOX (3 mg/kg), 3) L-DOX (5 mg/kg), 4) f-L-DOX (5 mg/kg), 5) saline+ATRA, 6) free DOX+ATRA, 7) L-DOX+ATRA, and 8) f-L-DOX+ATRA. The body weight and survival of the animals were monitored daily during the course of the study.

## CN1c2c(nc(N)[nH]c2=O)NC[C@@H]1CNc1ccc(C(=O)N[C@@H](CCC(=O)O)C(=O)O)cc1 [6S-5MeTHF, 6S-5-methyltetrahydrofolate]
KG-1 cells [1]
  inhibition of f-L-calcein uptake: did not significantly inhibit
FR-β
  affinity of FR-β lower than for folic acid: ~35 ×

## CS(=O)(=O)O.Cc1ccc(NC(=O)c2ccc(CN3CCN(C)CC3)cc2)cc1Nc1nccc(-c2cccnc2)n1 [Gleevec™]
CMLs
  effective against CMLs: 90%

## CC1=C(/C=C/C(C)=C/C=C/C(C)=C/C(=O)O)C(C)(C)CCC1 [ATRA, all-trans retinoic acid]
[2]
  Complete remission: 72-95%
KG-1 ascites tumor; ATRA treatment in the absence of f-L-DOX or L-DOX
  survival: did not enhance survival
FR-β expression [3]
  FR-β expression: increased
FR-β expression [4]; KG-1 cells, flow cytometry, 5-day exposure to ATRA (1 μM)
  FR-β expression: significant increase
FR-β expression [4]; KG-1 myeloid leukemia cells, dose-dependent, reversible
  FR-β expression elevated: up to 20 fold

## COc1cccc2c1C(=O)c1c(O)c3c(c(O)c1C2=O)C[C@@](O)(C(=O)CO)C[C@@H]3O[C@H]1C[C@H](N)[C@H](O)[C@H](C)O1 [Free DOX, doxorubicin]
KG-1 ascites tumor; mice, results not shown
  dose-limiting toxicity: > 3 mg/kg
KG-1 cells [5]; KG-1, FR-β (+), no ATRA, folate-free media
  IC50: 650 nM
KG-1 cells [5]; KG-1, FR-β (+), pre-exposure to ATRA, folate-free media
  IC50: 630 nM
KG-1 cells [5]; KG-1, no ATRA, media containing 1 mM folic acid
  IC50: 670 nM
KG-1 cells [5]; KG-1, pre-exposure to ATRA, media containing 1 mM folic acid
  IC50: 680 nM
KG-1a cells; FR (−), no ATRA, folate-free media
  IC50: 610 nM
KG-1a cells; FR (−), pre-exposure to ATRA, folate-free media
  IC50: 590 nM
KG-1a cells; no ATRA, media containing 1 mM folic acid
  IC50: 630 nM
KG-1a cells; pre-exposure to ATRA, media containing 1 mM folic acid
  IC50: 620 nM
L1210 cells; L1210, FR (−), no ATRA, folate-free media
  IC50: 910 nM
L1210 cells; L1210, no ATRA, media containing 1 mM folic acid
  IC50: 930 nM
L1210JF ascites tumor
  median survival time: 28.5 days
L1210JF cells; FR-α (+), folate-free media
  IC50: 860 nM
L1210JF cells; media containing 1 mM folic acid
  IC50: 870 nM

## Nc1nc2ncc(CNc3ccc(C(=O)N[C@@H](CCC(=O)O)C(=O)O)cc3)nc2c(=O)[nH]1 [folic acid]
FR-β (+) AML cells
  [3H] folic acid bound: 0.72±0.13 pmoles per 10^6 cells
